In patent US12630547B2, “RAS protein degraders, pharmaceutical compositions thereof, and their therapeutic applications” (BioTheryX, Inc., priority 2019, dated 2026):

Experiments:
Format in all cases: cell-based
MOLM-13 cells = assay: Cell viability assay (CELLTITER-GLO), MOLM-13 cells; conditions: Homo sapiens, MOLM-13, 72 h; Table 2; compound at 10 μM, 3 days; read-out: Effect on MOLM-13 cell viability (% DMSO)
Outline: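 MV-4-11 and MOLM-13 cells in RPMI 1640/10% FBS were seeded at 4,000 cells/well and exposed to compound (10 μM or 1 μM) or DMSO for 3 days at 37 °C, 5% CO2. CellTiter-Glo luminescence gave viability as % DMSO, binned into ranges A (<10%) through D (≥50%).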

H358 cells = assay: Cell viability assay (CELLTITER-GLO), H358 cells; conditions: Table 4; 3 days
Outline: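 H358 cells (RPMI 1640, 10% FBS), 4,000 per well, exposed to compound for 3 days at 37 °C, 5% CO2; viability by CellTiter-Glo luminescence. Single-dose viability as % DMSO at 10 or 1 μM, binned A (<10%) to D (≥50%); IC50 binned A (≤1 μM) to D (>10 μM).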

H23 cells = assay: Cell viability assay (CELLTITER-GLO), H23 cells; conditions: Table 4; 3 days
Outline: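 H23 cells in RPMI 1640 with 10% FBS, 4,000 cells/well, exposed to compound or DMSO for 3 days at 37° C, 5% CO2. Viability read by CellTiter-Glo luminescence after 10 min. IC50 reported in potency bins.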

Row | Inhibition of H358 cells, IC50 (class) (H358 cells) | Structure (SMILES) | viability at 10 µM (MOLM-13 cells) | Inhibition of H23 cells, IC50 (class) (H23 cells)
1 | B′ | CC(=O)N1CCN(c2ncnc3c(F)c(-c4c(F)cccc4OCCCCCCCN4CCC(c5cc(F)cc6c5CN(C5CCC(=O)NC5=O)C6=O)CC4)c(Cl)cc23)CC1 (stereo not drawn) [Compound 99, 3-(4-(1-(7-(2-(4-(4-Acetylpiperazin-1-yl)-6-chloro-8-fluoroquinazolin-7-yl)-3-fluorophenoxy)heptyl)piperidin-4-yl)-6-fluoro-1-oxoisoindolin-2-yl)piperidine-2,6-dione] | < 10% | B′
2 | A′ | C=C(Cl)C(=O)N1CCN(c2nc(=O)n(-c3ccccc3C(C)C)c3nc(-c4c(F)cccc4OCCCCCCCN4CCC(c5cc(F)cc6c5CN(C5CCC(=O)NC5=O)C6=O)CC4)c(F)cc23)[C@@H](C)C1 (stereo partly drawn) [Compound 100, 3-(4-(1-(7-(2-(4-((S)-4-(2-Chloroacryloyl)-2-methylpiperazin-1-yl)-6-fluoro-1-(2-isopropylphenyl)-2-oxo-1,2-dihydropyrido[2,3-d]pyrimidin-7-yl)-3-fluorophenoxy)heptyl)piperidin-4-yl)-6-fluoro-1-oxoisoindolin-2-yl)piperidine-2,6-dione] | < 10% | A′
3 | A′ | C=C(Cl)C(=O)N1CCN(c2ncnc3c(F)c(-c4c(F)cccc4OCCOCc4ccc(COCCN5CCC(c6cc(F)cc7c6CN(C6CCC(=O)NC6=O)C7=O)CC5)cc4)c(Cl)cc23)CC1 (stereo not drawn) [Compound 101, 3-(4-(1-(2-((4-((2-(2-(6-Chloro-4-(4-(2-chloroacryloyl)piperazin-1-yl)-8-fluoroquinazolin-7-yl)-3-fluorophenoxy)ethoxy)methyl)benzyl)oxy)ethyl)piperidin-4-yl)-6-fluoro-1-oxoisoindolin-2-yl)piperidine-2,6-dione] | < 10% | A′
4 | A′ | C=C(Cl)C(=O)N1CCN(c2ncnc3c(F)c(-c4c(F)cccc4OCCCCCCCN4CCC(c5cc(F)cc6c5CN(C5CCC(=O)NC5=O)C6=O)CC4)c(Cl)cc23)C[C@H]1CC#N (stereo partly drawn) [Compound 102, 2-((2R)-4-(6-Chloro-7-(2-((7-(4-(2-(2,6-dioxopiperidin-3-yl)-6-fluoro-1-oxoisoindolin-4-yl)piperidin-1-yl)heptyl)oxy)-6-fluorophenyl)-8-fluoroquinazolin-4-yl)-1-(2-chloroacryloyl)-piperazin-2-yl)acetonitrile] | < 10% | A′
5 | A′ | C=C(Cl)C(=O)N1CCN(c2ncnc3c(F)c(-c4c(F)cccc4OCCCCCN4CCC(c5cc(F)cc6c5CN(C5CCC(=O)NC5=O)C6=O)CC4)c(Cl)cc23)CC1 (stereo not drawn) [Compound 103, 3-(4-(1-(5-(2-(6-Chloro-4-(4-(2-chloroacryloyl)piperazin-1-yl)-8-fluoroquinazolin-7-yl)-3-fluorophenoxy)pentyl)piperidin-4-yl)-6-fluoro-1-oxoisoindolin-2-yl)piperidine-2,6-dione] | < 10% | A′
6 | B′ | C=C(Cl)C(=O)N1C[C@@H]2C(=O)N(C)c3cnc4c(F)c(-c5c(F)cccc5OCCCCCCCN5CCC(c6cc(F)cc7c6CN(C6CCC(=O)NC6=O)C7=O)CC5)c(Cl)cc4c3N2C[C@H]1C (stereo partly drawn) [Compound 104, 3-(4-(1-(7-(2-((2R,4aR)-11-Chloro-3-(2-chloroacryloyl)-9-fluoro-2,6-dimethyl-5-oxo-2,3,4,4a,5,6-hexahydro-1H-pyrazino[1′,2′:4,5]pyrazino[2,3-c]quinolin-10-yl)-3-fluorophenoxy)-heptyl)piperidin-4-yl)-6-fluoro-1-oxoisoindolin-2-yl)piperidine-2,6-dione] | < 10% | B′
7 | A′ | C=C(Cl)C(=O)N1CCN(c2ncnc3cc(-c4c(F)cccc4OCCCCCCCN4CCC(c5cccc6c5CN(C5CCC(=O)NC5=O)C6=O)CC4)c(Cl)cc23)CC1 (stereo not drawn) [Compound 105, 3-(4-(1-(7-(2-(6-Chloro-4-(4-(2-chloroacryloyl)piperazin-1-yl)quinazolin-7-yl)-3-fluorophenoxy)heptyl)piperidin-4-yl)-1-oxoisoindolin-2-yl)piperidine-2,6-dione] | < 10% | A′
8 | A′ | C=C(Cl)C(=O)N1CCN(c2ncnc3c(F)c(-c4c(F)cccc4OCCCCCCCN4CCC(c5cc6c(cc5F)C(=O)N(C5CCC(=O)NC5=O)C6)CC4)c(Cl)cc23)CC1 (stereo not drawn) [Compound 107, 3-(5-(1-(7-(2-(6-Chloro-4-(4-(2-chloroacryloyl)piperazin-1-yl)-8-fluoroquinazolin-7-yl)-3-fluorophenoxy)heptyl)piperidin-4-yl)-6-fluoro-1-oxoisoindolin-2-yl)piperidine-2,6-dione] | < 10% | A′
9 | A′ | C=C(Cl)C(=O)N1CCN(c2nc(OC[C@@H]3CCCN3C)nc3c(F)c(-c4c(F)cccc4OCCCCCCCN4CCC(c5cc(F)cc6c5CN(C5CCC(=O)NC5=O)C6=O)CC4)c(Cl)cc23)CC1 (stereo partly drawn) [Compound 108, 3-(4-(1-(7-(2-(6-Chloro-4-(4-(2-chloroacryloyl)piperazin-1-yl)-8-fluoro-2-(((S)-1-methylpyrrolidin-2-yl)methoxy)quinazolin-7-yl)-3-fluorophenoxy)heptyl)piperidin-4-yl)-6-fluoro-1-oxoisoindolin-2-yl)piperidine-2,6-dione] | < 10% | A′
10 | B′ | CCC(=O)N1CCN(c2ncnc3c(F)c(-c4c(F)cccc4OCCOCc4ccc(COCCN5CCC(c6cc(F)cc7c6CN(C6CCC(=O)NC6=O)C7=O)CC5)cc4)c(Cl)cc23)CC1 (stereo not drawn) [Compound 109, 3-(4-(1-(2-((4-((2-(2-(6-Chloro-8-fluoro-4-(4-propionylpiperazin-1-yl)quinazolin-7-yl)-3-fluorophenoxy)ethoxy)methyl)benzyl)oxy)ethyl)piperidin-4-yl)-6-fluoro-1-oxoisoindolin-2-yl)piperidine-2,6-dione] | < 10% | B′
11 | B′ | C=C(Cl)C(=O)N1CCN(c2ncnc3c(F)c(-c4c(F)cccc4OCCC4CCC(CCN5CCC(c6cc(F)cc7c6CN(C6CCC(=O)NC6=O)C7=O)CC5)CC4)c(Cl)cc23)CC1 (stereo not drawn) [Compound 110, 3-(4-(1-(2-(4-(2-(2-(6-Chloro-4-(4-(2-chloroacryloyl)piperazin-1-yl)-8-fluoroquinazolin-7-yl)-3-fluorophenoxy)ethyl)cyclohexyl)ethyl)piperidin-4-yl)-6-fluoro-1-oxoisoindolin-2-yl)piperidine-2,6-dione] | < 10% | A′
12 | B′ | C=C(Cl)C(=O)N1CCN(c2ncnc3c(F)c(-c4c(F)cccc4OCCc4ccc(CCN5CCC(c6cc(F)cc7c6CN(C6CCC(=O)NC6=O)C7=O)CC5)cc4)c(Cl)cc23)CC1 (stereo not drawn) [Compound 111, 3-(4-(1-(4-(2-(2-(6-Chloro-4-(4-(2-chloroacryloyl)piperazin-1-yl)-8-fluoroquinazolin-7-yl)-3-fluorophenoxy)ethyl)phenethyl)piperidin-4-yl)-6-fluoro-1-oxoisoindolin-2-yl)piperidine-2,6-dione] | < 10% | A′
13 | B′ | C=C(Cl)C(=O)N1CCN(c2ncnc3c(F)c(-c4c(F)cccc4OCCCCCCCN4CCC(c5cc(F)cc6c5CN(C5CCC(=O)NC5=O)C6=O)C4)c(Cl)cc23)CC1 (stereo not drawn) [Compound 112, 3-(4-(1-(7-(2-(6-Chloro-4-(4-(2-chloroacryloyl)piperazin-1-yl)-8-fluoroquinazolin-7-yl)-3-fluorophenoxy)heptyl)pyrrolidin-3-yl)-6-fluoro-1-oxoisoindolin-2-yl)piperidine-2,6-dione] | < 10% | A′
14 | B′ | C=C(Cl)C(=O)N1CCN(c2ncnc3c(F)c(-c4c(F)cccc4OCCCCCCCCCN4CCC(c5cc(F)cc6c5CN(C5CCC(=O)NC5=O)C6=O)CC4)c(Cl)cc23)CC1 (stereo not drawn) [Compound 113, 3-(4-(1-(9-(2-(6-Chloro-4-(4-(2-chloroacryloyl)piperazin-1-yl)-8-fluoroquinazolin-7-yl)-3-fluorophenoxy)nonyl)piperidin-4-yl)-6-fluoro-1-oxoisoindolin-2-yl)piperidine-2,6-dione] | < 10% | B′
15 | B′ | C=C(Cl)C(=O)N1CCN(c2ncnc3c(F)c(-c4c(F)cccc4OCCCCCCCCCCCN4CCC(c5cc(F)cc6c5CN(C5CCC(=O)NC5=O)C6=O)CC4)c(Cl)cc23)CC1 (stereo not drawn) [Compound 114, 3-(4-(1-(11-(2-(6-Chloro-4-(4-(2-chloroacryloyl)piperazin-1-yl)-8-fluoroquinazolin-7-yl)-3-fluorophenoxy)undecyl)piperidin-4-yl)-6-fluoro-1-oxoisoindolin-2-yl)piperidine-2,6-dione] | < 10% | B′
